Patent US20010041708A1, “Compositions for preventing cellulite in mammalian skin” (Zen-Bio, Inc., priority 2000, published 2001)
“And” between values parts separate entries of the source, which are not always exact repeats. Equal entries are not always repeated.

What was measured:
3T3-L1 preadipocytes [1] = experiment: Fatty acid composition of neutral and phospholipid fractions of treated cultures; format: cell-based, murine
[2] = system: stromal vascular (SV) cells from human adipose tissue; experiment: Triglyceride (TG) content of differentiating primary cultures of SV cells; format: cell-based; details: for TG content, dose response: Exp. 3, 1, 3, 10, 30 uM; for More TG content than cultures treated with 10 uM trans-10, cis-12 CLA alone: Exp. 4
Experimental: Abdominal adipose tissue (Exp. 1-5) and thigh adipose tissue (Exp. 5b) were obtained from middle-aged females with body mass indexes <30.0 during liposuction or elective surgery. Subsequently, tissue was minced and enzymatically digested for 45 min in a Krebs-Ringer buffer containing 1 mg/mL collagenase (CLS-1, Worthington Biochemical Corp, Lakewood, N.J.), 15 mg/mL bovine serum albumin (BSA), 5 mM glucose and 100 mM HEPES (pH 7.4). Digestion was carried out at a 5 mL/1 g ratio (digestion solution: tissue mass). The digesta was then filtered through 200- and 60-micron mesh and pelleted at 600×g for 5 min. The SV cells were resuspended in a RBC lysis buffer for 10 min and then filtered and recentrifuged to remove contaminating […]. Cultures of SV cells were grown in proliferation medium containing 90% DME/Ham's F-10 (1:1, v/v), 10% (v/v) fetal bovine serum (FBS), 15 mM HEPES (pH 7.4), 60 U/mL penicillin, 60 U/mL streptomycin, and 25 ug/mL fungizone. Cultures were incubated at 37° C. in a humidified […]:CO2 (90:10%) atmosphere. SV cells were grown to 80% confluency and then cryopreserved in liquid nitrogen in aliquots (2×10^6 cells/mL).
Cryopreserved aliquots were subsequently thawed, seeded in T-150 flasks (e.g., 1 vial per 2 T-150 flasks), and grown in proliferation media until 80% confluent. At this time the cells were removed via trypsinization, seeded (3×10^4/cm^2, except for Exp. 1) in 24-well or 96-well (Exp. 5b) Falcon dishes, and allowed to attach for 24 h in proliferation medium. Following attachment, cultures were grown in differentiation medium for the next 3 d which contained DME/Ham's F-10 (1:1,v/v), 15 mM HEPES (pH 7.4), 33 uM biotin, 17 uM pantothenate, 100 nM human insulin, 1 uM dexamethasone (DEX), 60 U/mL penicillin, 60 U/mL streptomycin, 25 ug/mL fungizone, 0.25 mM isobutylmethylxanthine (IBMX), and TZD (Exp. 1 & 2=BRL 49653; Exp. 3-5=Zen Bio's proprietary reagent). Thereafter, cultures were exposed to adipocyte medium consisting of 90% DME/Ham's F-10 (1:1,v/v), 15 mM HEPES (pH 7.4), 3% FBS (v/v), 33 uM biotin, 17 uM pantothenate, 100 nM human insulin, 1 uM DEX, 60 U/mL penicillin, 60 U/mL streptomycin, and 25 ug/mL fungizone. Adipocyte media was replaced every 3 d. […] After 18 day in culture, the majority of the cells contained visual lipid droplets.
(§1) Experiment 1 was designed to determine optimal culturing conditions during differentiation of primary cultures of SV cells isolated from human adipose tissue. Specifically, the experiment was designed to determine how seeding density and thiazolidinedione (TZD; PPARγ-agonist BRL 49653) concentration influenced TG content (ug/10^6cells). SV cells were seeded at increasing densities (2-, 3-, or 4×10^4/cm^2) in differentiation media containing 0, 1, or 10 uM TZD (BRL 49653) in this 3×3 factorial design. All cultures received the same adipocyte media after 3 d of differentiation. The cultures were harvested on day 11-12 of differentiation and TG content and cell number were measured. Another set of cultures was stained with Oil Red O and counterstained with Mayer's hematoxylin to assess cellular differentiation potential (n=3 per treatment combination).
In Experiment 2 the impact of linoleic acid and the trans-10, cis-12 isomer of CLA on TG accumulation in these cells was examined. SV cells were seeded at a density of 3×10^4/cm^2 and continuously treated with either 10 uM linoleic acid, 100 uM linoleic acid, 10 uM trans-10, cis-12 CLA, or 100 uM trans-10, cis-12 CLA, and grown under our normal differentiation protocol. One set of control cultures contained only vehicle (BSA) and another contained vehicle plus TZD (BRL 49653). TG content and cell number were measured on day 11 of differentiation.
The objective of Experiment 3 was to evaluate the dose response of trans-10, cis-12 CLA, cis-9, trans-11 CLA, and linoleic acid on TG content of the cultures. […]

[3] = system: stromal vascular (SV) cells from human adipose tissue; experiment: De novo lipogenesis (14C-glucose incorporation into cellular lipid); format: cell-based; details: Exp. 5a; 3, 10, 30 uM, day 12
Experimental: Experiments 5a and 5b were designed to determine if the trans-10, cis-12 CLA-mediated reduction in TG content was due to decreased lipogenesis and/or increased lipolysis. In Experiment 5a (lipogenesis), SV cells were seeded at a density of 3×10^4/cm^2 and continuously treated with increasing concentrations (3, 10, or 30 uM) of either linoleic acid, cis-9, tran-11 CLA, or trans-10, cis-12 CLA. A set of control cultures received vehicle (BSA) plus TZD. All cultures received differentiation media (days 1-3), adipocyte media (days 4-9), and low-glucose (˜5 mM) adipocyte media (days 10-12) prior to measuring de novo lipogenesis. On day 12, ^14C-labeled glucose incorporation into the lipid fraction of the cultures was measured for 2 h and, following lipid extraction, the radioactivity in the lipid fraction was determined by scintillation counting. Time course data (not shown) indicated a linear increase in radiolabeled glucose incorporation into lipid over 2 h.
Incorporation of ^14C-glucose into cellular lipid was determined on day 12 of differentiation in cultures chronically treated with fatty acids or vehicle. Following the addition of fatty acids and low glucose (˜5 mM) medium to the cultures on day 12, 1.0 μCi [U-^14C]-glucose ([U-^14C]-D-glucose; SA ˜250 mCi/mmol, ICN, Costa Mesa, Calif.)/mL medium was added to the cultures for 2 h. Our time course study (data not shown) indicated a linear increase in radiolabeled glucose incorporation into lipid over a 2 h period. After 2 h, media containing unincorporated ^14C-glucose was immediately removed and the cultures were washed with 1 mL HBSS to remove unincorporated ^14C-glucose. An additional 1 mL of HBSS was added and, after vigorous tritaration, cells were transferred to glass vials. Five milliliters of a chloroform:methanol (2:1) solution was added to each vial and they were vortexed for 1 min. All samples were then centrifuged for 5 min at 1000×g to further separate the hydrophobic and hydrophilic phases. The lower hydrophobic phase was removed from the tubes and dried under nitrogen at 40° C. Five milliliters of scintillation cocktail (Scinti Verse, Fisher Scientific, Norcross, Ga.) was added to each sample, and the ^14C content was determined by liquid scintillation counting on a Beckman LS 6000 Scintillation Counter (Beckman Instruments, Palo Atlo, Calif.). […] The radioactivity in the lipid fraction from these cultures was subtracted from the total counts. Cell numbers were determined from parallel treatment groups in separate culture dishes at the time of radioisotope addition to the medium. Therefore, mean ^14C-glucose incorporation is expressed as cpm/10^6 cells.

[4] = system: stromal vascular (SV) cells from human adipose tissue; experiment: Percentage of cells differentiated into adipocytes (Oil Red O staining); format: cell-based; details: Exp. 1, seeding density 4×10^4
Experimental: as §1
The presence of intracellular lipid was visualized by staining cultures with Oil Red O as previously described for human SV cultures (McIntosh et al. (1999) Int. J. Obesity 23:595-602). […] Counterstaining allows for quantifying the percentage of cells that have undergone differentiation (e.g., […]). […]

[5] = system: differentiated human adipocytes; experiment: Lipolysis measurement (glycerol release) in day 21 differentiated human adipocytes; details: 3 hrs
[6] = system: cultures of thigh adipocytes; experiment: Lipolysis assay (glycerol release), thigh adipocytes; format: cell-based, human; details: Exp. 5b; 1 uM, 5 h, day 18, thigh
Experimental: (§2) Subsequently, tissue was minced and enzymatically digested for 45 min in a Krebs-Ringer buffer containing 1 mg/mL collagenase (CLS-1, Worthington Biochemical Corp, Lakewood, N.J.), 15 mg/mL bovine serum albumin (BSA), 5 mM glucose and 100 mM HEPES (pH 7.4). Digestion was carried out at a 5 mL/1 g ratio (digestion solution: tissue mass). The digesta was then filtered through 200- and 60-micron mesh and pelleted at 600×g for 5 min. The SV cells were resuspended in a RBC lysis buffer for 10 min and then filtered and recentrifuged to remove contaminating […]. […] SV cells were grown to 80% confluency and then cryopreserved in liquid nitrogen in aliquots (2×10^6 cells/mL). In Experiment 5b, basal lipolysis was measured on day 18 of differentiation after the cultures had been treated with fatty acids for 5 h. […] Lipolysis was determined by measuring free and esterified glycerol release into the media following acute (5 h) treatment. […] On day 17 of differentiation, cultures were grown in basal adipocyte media (adipocyte media minus insulin and DEX). […] A set of vehicle controls contained 0.1% DMSO. One hundred microliters of conditioned media was removed from each well, and lipolytic rate determined by quantifying the amount of free glycerol and esterified glycerol in each sample using Sigma's triglyceride kit (GPO-Trinder, Sigma Chemical Co.).

[7] = system: cultures of abdominal adipocytes; experiment: Lipolysis assay (glycerol release), abdominal adipocytes; format: cell-based, human; details: Exp. 5b; 1 uM, 5 h, day 18, abdominal
Experimental: as §2

3T3-L1 preadipocytes [8] = experiment: TG content of 3T3-L1 preadipocytes; format: cell-based, murine; details: LA supplementation of CLA-treated cultures
PPARγ2 = PPARγ2 protein expression in 3T3-L1 preadipocytes; format: cell-based, murine
3T3-L1 preadipocytes [9] = experiment: Cell number of treated 3T3-L1 cultures; format: cell-based, murine; details: data not shown
3T3-L1 preadipocytes [10] = experiment: Morphological changes (apoptosis-like) in CLA-treated cultures; format: cell-based, murine; details: LA supplementation of trans-10, cis-12 CLA-treated cultures
aP2 = aP2 protein expression in 3T3-L1 preadipocytes; format: cell-based, murine; details: after 6 d of treatment

For `CCCCCC/C=C/C=C\CCCCCCCC(=O)O` [cis-9, trans-11 CLA], the “Abundance in lipid fractions relative to trans-10, cis-12 isomer” value (3T3-L1 preadipocytes [1]) was 1-2 fold, the “Incorporation into cellular lipid fractions” value (3T3-L1 preadipocytes [1]; neutral and phospholipid fractions) was “incorporated into the neutral and phospholipid fractions” and the “TG content, dose response” value ([2]; day 11) was “increased in a dose dependent fashion”. The “Incorporation of 14C-glucose into cellular lipid per 10^6 cells, dose response” value [3] was “neither linoleic acid nor trans-9, cis-11 CLA influenced de novo lipogenesis”.

With `CN(CCOc1ccc(CC2SC(=O)NC2=O)cc1)c1ccccn1` (stereo not drawn) [BRL 49653] the “Percentage of cells that differentiated” value ([4]; 1 uM TZD) was 50%, the “Percentage of cells that differentiated” value ([4]; 10 uM TZD) was 47% and the “TG content, fold greater than similarly seeded cultures without BRL 49653” value ([2]; Exp. 1, 10 uM, seeded at 4×10^4 cells/cm^2) was 10 fold.

With `Cn1c(=O)c2[nH]cnc2n(C)c1=O` [Theophylline] the “Lipolysis, fold increase over control” value ([5]; 0.01 % (wt./volume)) was 0.8 fold, the “Lipolysis, fold increase over control” value ([5]; 0.05 % (wt./volume)) was 1.9 fold and the “Lipolysis, fold increase over control” value ([5]; 0.1 % (wt./volume)) was 3.1 fold.

In the case of `CC(C)NCC(O)c1ccc(O)c(O)c1` (stereo not drawn) [Isoproterenal], the Stimulation of lipolysis [6] is reported as roughly 1.5 fold, the “Lipolysis, fold increase over control” value ([5]; 0.00002 % (wt./volume)) is reported as 3.4 fold and the Stimulation of lipolysis [7] is reported as “approximately 2.5 fold”.

With `CCCCC/C=C\C/C=C\CCCCCCCC(=O)O` [linoleic acid, 9 cis, 12 cis-octadecadienoic acid] the “TG content, concurrent linoleic acid with trans-10, cis-12 CLA” value (3T3-L1 preadipocytes [8]) was “able to prevent the TG-lowering effects of trans-10, cis-12 CLA”, the “PPARγ2 protein levels, concurrent LA and trans-10, cis-12 CLA vs CLA alone” value (PPARγ2; 6 d) was “increased PPARγ2 protein levels” and the PPARγ2 protein expression (PPARγ2; after 6 d of treatment) was “decreased”. For the same molecule, the “PPARγ2 protein expression compared to BSA controls” value (PPARγ2; day 2 of differentiation) was “reduced PPARγ2 protein expression”, the Cell number (3T3-L1 preadipocytes [9]) was “increased cell number” and the CLA-induced morphological changes (3T3-L1 preadipocytes [10]) was “inhibited the CLA-induced morphological changes in a dose-dependent manner”. For the same molecule, the aP2 protein expression (aP2) was “decreased”, the “TG content vs other treatments / TZD treated vehicle controls” value ([2]; Exp. 2, 100 uM, continuous treatment, day 11) was “highest TG content” and the “TG content, dose response” value ([2]; day 11) was “increased in a dose dependent fashion”. For the same molecule, the “More TG content than cultures treated with 10 uM trans-10, cis-12 CLA alone” value (“More TG content than cultures treated” for short) ([2]; 10 uM linoleic acid added to 10 uM trans-10, cis-12 CLA) was 26%, the “More TG content than cultures treated” value ([2]; 30 uM linoleic acid added to 10 uM trans-10, cis-12 CLA) was 55% and the “More TG content than cultures treated” value ([2]; 100 uM linoleic acid added to 10 uM trans-10, cis-12 CLA) was 64%. The “Incorporation of 14C-glucose into cellular lipid per 10^6 cells, dose response” value [3] was “neither linoleic acid nor trans-9, cis-11 CLA influenced de novo lipogenesis”.

`Cn1c(=O)c2c(ncn2C)n(C)c1=O` [Caffeine] was tested, and the “Lipolysis, fold increase over control” value ([5]; 0.1 % (wt./volume)) was 2.4 fold and 4.2 fold.
